Experimental data reported in PubChem BioAssay (NCI).
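Dose response: 5 concentrations. Exposure: 48 h. Format: 96-well plates. Endpoint: linear interpolation; highest concentration if not reached. Abbreviation: GI50, concentration required for 50% inhibition of growth. TGI: concentration producing complete growth inhibition.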

Columns and labels:
Assay in all cases: NCI tumour cell line growth inhibition, 48 h
[1] = test system: NCI-H23 lung
[2] = test system: NCI-H460 lung
[3] = test system: NCI-H522 lung
[4] = test system: NCI/ADR-RES ovarian
[5] = test system: OVCAR-3 ovarian
[6] = test system: OVCAR-4 ovarian
[7] = test system: OVCAR-5 ovarian
[8] = test system: OVCAR-8 ovarian
[9] = test system: PC-3 prostate
[10] = test system: RPMI-8226 leukemia
[11] = test system: RXF 393 renal
[12] = test system: SF-268 CNS
[13] = test system: SF-295 CNS
[14] = test system: SF-539 CNS
[15] = test system: SK-MEL-2 melanoma
[16] = test system: SK-MEL-28 melanoma
[17] = test system: SK-MEL-5 melanoma
[18] = test system: SK-OV-3 ovarian
[19] = test system: SN12C renal
[20] = test system: SNB-19 CNS
[21] = test system: SNB-75 CNS
[22] = test system: SR leukemia
[23] = test system: SW-620 colon
[24] = test system: T-47D breast
[25] = test system: TK-10 renal
[26] = test system: U251 CNS
[27] = test system: UACC-257 melanoma
[28] = test system: UACC-62 melanoma
[29] = test system: UO-31 renal

Q: Which results are given for `O=C1NC(=NCCc2cccs2)S/C1=C\c1ccc2ncccc2c1`?
A: TGI [1]: > 25 µM; GI50 [2]: 10.3 µM; TGI [2]: > 25 µM; GI50 [3]: 7.33 µM; TGI [3]: > 25 µM; GI50 [4]: 15.3 µM; TGI [4]: > 25 µM; GI50 [5]: 10.1 µM; TGI [5]: > 25 µM; GI50 [6]: 13.2 µM; TGI [6]: > 25 µM; GI50 [7]: > 20.4 µM; TGI [7]: > 25 µM; GI50 [8]: 10.3 µM; TGI [8]: > 25 µM; GI50 [9]: > 20 µM; TGI [9]: > 25 µM; GI50 [10]: 11.6 µM; TGI [10]: > 25 µM; GI50 [11]: 7.68 µM; TGI [11]: > 25 µM; GI50 [12]: 10 µM; TGI [12]: > 25 µM; GI50 [13]: 9.56 µM; TGI [13]: > 25 µM; GI50 [14]: 7.54 µM; TGI [14]: > 25 µM; GI50 [15]: > 18.8 µM; TGI [15]: > 25 µM; GI50 [16]: 24.4 µM; TGI [16]: > 25 µM; GI50 [17]: 8.5 µM; TGI [17]: > 25 µM; GI50 [18]: 9.36 µM; TGI [18]: > 25 µM; GI50 [19]: 8.78 µM; TGI [19]: > 25 µM; GI50 [20]: 9.64 µM; TGI [20]: > 25 µM; GI50 [21]: 5.91 µM; TGI [21]: > 22.6 µM; GI50 [22]: 2.23 µM; TGI [22]: 14.2 µM; GI50 [23]: 8.2 µM; TGI [23]: > 25 µM; GI50 [24]: 10.1 µM; TGI [24]: > 25 µM; GI50 [25]: 7.77 µM; TGI [25]: > 25 µM; GI50 [26]: 8.79 µM; TGI [26]: > 25 µM; GI50 [27]: > 19.3 µM; TGI [27]: > 25 µM; GI50 [28]: 9.51 µM; TGI [28]: > 25 µM; GI50 [29]: 11.4 µM; TGI [29]: > 25 µM
